# Results published in publication PMC12866179, “Oxidized MIF is an Alzheimer’s disease drug target relaying external risk factors to tau pathology” (Cell Reports Medicine, 2025).
# Tests used:
# HSV-1 = HSV-1 infection of human brain organoids; format: cell-based, HSV-1 KOS strain; conditions: 250 nM PAV-174
# Description: (§1) 60 days old human brain organoids with an estimated cell number of 2.5x10^6 were preincubated with DMSO or 250 nM of PAV-174 for 1h (final DMSO concentration was 0.5%). Then organoids were infected with HSV-1 at an MOI of 0.1 or 1.0. At the next day the medium was renewed and new compound was added. After another 24h, the organoids were washed two times with PBS and then either fixed with 4% PFA at 4°C overnight (for immunocytochemistry and TUNEL assay) or lysed with cold RIPA buffer (50 mM Tris-HCL, pH 7.4, 1% NP-40, 0.5% Na-deoxycholate, 0.1% SDS, 150 mM NaCl, 5 mM EDTA, 50 mM NaF) plus 1X Protease inhibitor cocktail (Roche) and phosphatase inhibitor cocktail (Sigma) followed by 4x sonication for 30s using a Misonix ultrasonic water bath at 100% amplitude. Protein concentration was determined with the DC Protein Assay (Bio-Rad). For immunocytochemistry and TUNEL assay fixed organoids were embedded in paraffin and section of 5 μm were prepared.
# For immunocytochemistry of organoid sections, frozen slides were thawed and kept on RT until they were dry. Slides were washed with PBS and incubated for 5 min. Then the sections were incubated with 30 mM glycine in PBS for 5 min and permeabilized with PBS/0.5% TX100/0.1% Tween 20 for 10 min. To equally distribute the solutions a parafilm layer was placed on top. […]
# GSK3β = GSK3β phosphorylation (Ser9) in SH-SY5Y-tau-P301S cells, immunoblot; format: cell-based, human; conditions: dose-dependent and MIF-dependent
# Description: After the protein concentration of cell lysates and homogenates had been determined using the DC Protein Assay Kit (Bio-Rad), 20 μg of each sample were dissolved in NuPAGE LDS Sample buffer (including 2% β-mercaptoethanol), boiled at 100°C for 5 min and then separated on NuPAGE Novex 4–12% Bis-Tris midi gels (Invitrogen) using NuPAGE MES SDS Running buffer (Invitrogen). Proteins were then transferred to a 0.2 μm nitrocellulose membrane (Amersham) in 24 mM Tris/192 mM glycine/20% MeOH at 400 mA for 2h using a tank blot system (Bio-Rad). In order to detect any blotting artifacts, the proteins on the membranes were visualized with Ponceau S (Sigma). The membranes were destained with PBS and then blocked with PBS/5% nonfat milk (Oxoid) for 1h at RT. Incubations with primary antibodies (diluted 1:1,000) in PBS-T were carried out overnight at 4°C. Then the membranes were washed three times with PBS-T for 10 min and afterward incubated with fluorescent secondary antibodies (IR Dye 680 or 800: Li-COR Biosciences.) diluted 1:20,000 in PBS-T for 1h at RT. Following three washing steps with PBS-T for 10 min each, the membranes were scanned using an LI-COR Odyssey CLX. Signal intensities were calculated using the Image Studio Version 2.1 software (LI-COR Biosciences). Blots were reused for staining with additional primary antibodies following the same procedure.
# human brain organoids = assay: TUNEL assay in human brain organoids; format: cell-based
# Description: as §1
# Apoptotic cells in sections of brain organoids were detected by TdT-mediated dUTP-biotin nick end labeling (TUNEL) using the DeadEnd Fluorometric TUNEL System (Promega) according to the manufacturers recommendations. At least three 5-μm sections of the brain organoids were analyzed by taking at least 10 images of each organoid. Dead cells were counted using Fiji/ImageJ (NIH).
# MIF-wt and MIF-C80W = assay: Stabilization of transiently expressed MIF in HEK-MIF-knockdown cells; format: cell-based, human; conditions: HEK-MIF-KO cells transfected with rescue constructs
# Description: Transient transfection of HEK-MIF-knockdown cells with MIF-rescue constructs were carried out with lipofectamine 3000 according to the manufacturer’s recommendations. Briefly, 5x10^5 HEK-MIF-ko cells were seeded into 12-well plates. At the next day the cells were transfected with 2.5 μg of vector DNA. Cells were washed twice with PBS and lysed in PBS/1% NP40 48h after transfection.
# [1] = MTT assay, SH-SY5Y-tau-P301S cells; format: cell-based; conditions: human, Figure S1B
# Description: For viability analysis 4x10^4 Vero or 8x10^4 SH-SY5Y-tau-P301S cells were plated in a 96-well plate and incubated at 37°C overnight. Then the compounds diluted in DMSO were added to the cells. The final concentration of DMSO was 1%. The cells were then incubated for 24h (Vero) or 48h (SH-SY5Y). Afterward 20 μL of a Thiazolyl Blue Tetrazolium Bromide (MTT, Sigma) solution (5 mg/mL in PBS) was added to the cells and incubated for 4h allowing viable cells to reduce the yellow MTT into blue formazan metabolites. Following aspiration of the medium, the formazan was resuspended in 200 μL isopropanol/40 mM HCl and incubated for 30 min at RT. The diluted formazan was spectrometrically analyzed using a Tecan Safire Spectrometer at 560 nm and background at 670 nm was subtracted.
smiles,measurement,setting,value
"CCc1cc(N2CCCC2)cc2[s+]c3cc(N4CCCC4)cc(C)c3nc12.[I-] [PAV-174, 3,7-Di(pyrrolidine-1-yl) 1-ethyl-9-methyl-phenothiazin-5-ium iodide]",HSV-1 infection of human brain organoids (HSV-1-gC staining),HSV-1,completely abolished
same,phosphorylation of GSK3β at Ser9,GSK3β,increased
same,induction of apoptosis in human brain organoids,human brain organoids,no induction of apoptosis
same,cell toxicity mediated by HSV-1 infection (TUNEL-positive cells),human brain organoids; HSV-1-infected brain organoids,lowered cell toxicity mediated by HSV-1 infection
same,stabilization of MIF-wt and MIF-C80W,MIF-wt and MIF-C80W,significant stabilization
same,CC50 at 48 h,[1],1480 nM
